Entries after “also recorded” stand apart in the source; their conditions may differ.
Tests used:
[1] = target: T1, RNase A (Bos taurus, UniProt P61823); test: RNase A inactivation, mouse total RNA on agarose formaldehyde gel; format: biochemical
T1 sequence (P61823 27-150): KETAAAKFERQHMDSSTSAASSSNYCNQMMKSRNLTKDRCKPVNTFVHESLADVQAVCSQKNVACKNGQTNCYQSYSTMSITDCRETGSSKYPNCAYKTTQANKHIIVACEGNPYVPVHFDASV
Description: The non-isotopic assay uses total RNA isolated from mouse as the substrate for the RNase mixture. […] A quantity of 4 μg of total RNA isolated from mouse liver or brain was dissolved in an aqueous solution, usually water or 1 mM sodium citrate (pH 6.6). The treated ribonuclease sample was added to the total RNA and then incubated at 37° C. for 1 or 16 hours, depending on the sensitivity desired for the assay. After incubation, the RNA was fractionated in a formaldehyde 1% agarose gel. The RNA was detected by staining with ethidium bromide and then illuminating the gel with ultraviolet light. The RNA fluoresces in the gel. Untreated total RNA was also fractionated as a control with the test samples for comparative purposes. […] Intact total RNA has two major bands produced by the 28S and 18S ribosomal RNA. […] RNase A, at 200 ng/ml instead of 10 μg/ml, was treated with or without 4 mM DTT in Boshes' solution A at 4° C. for 20 minutes. RNase A activity was then tested by incubating mouse liver total RNA with the treated RNase A at 37° C. for 60 minutes. The mouse RNA was then fractionated by electrophoresis in a 1% agarose formaldehyde gel. […] RNase A was diluted to 154 ng/ml in 1 mM sodium citrate (pH 6.4) or in Boshes' (1970) buffer A. DTT was added to the samples to 4 mM or 20 mM and then incubated at 4° C. or 60° C. for 20 minutes.

[2] = target: T2, SP6 RNA polymerase (Enterobacteria phage SP6, UniProt P06221); test: In vitro transcription reaction (MAXIscript kit), UTP[α-32P] incorporation; format: biochemical; conditions: 20 mM reducing reagent
T2 construct: purchased Ambion, Inc
T2 sequence (P06221 1-874): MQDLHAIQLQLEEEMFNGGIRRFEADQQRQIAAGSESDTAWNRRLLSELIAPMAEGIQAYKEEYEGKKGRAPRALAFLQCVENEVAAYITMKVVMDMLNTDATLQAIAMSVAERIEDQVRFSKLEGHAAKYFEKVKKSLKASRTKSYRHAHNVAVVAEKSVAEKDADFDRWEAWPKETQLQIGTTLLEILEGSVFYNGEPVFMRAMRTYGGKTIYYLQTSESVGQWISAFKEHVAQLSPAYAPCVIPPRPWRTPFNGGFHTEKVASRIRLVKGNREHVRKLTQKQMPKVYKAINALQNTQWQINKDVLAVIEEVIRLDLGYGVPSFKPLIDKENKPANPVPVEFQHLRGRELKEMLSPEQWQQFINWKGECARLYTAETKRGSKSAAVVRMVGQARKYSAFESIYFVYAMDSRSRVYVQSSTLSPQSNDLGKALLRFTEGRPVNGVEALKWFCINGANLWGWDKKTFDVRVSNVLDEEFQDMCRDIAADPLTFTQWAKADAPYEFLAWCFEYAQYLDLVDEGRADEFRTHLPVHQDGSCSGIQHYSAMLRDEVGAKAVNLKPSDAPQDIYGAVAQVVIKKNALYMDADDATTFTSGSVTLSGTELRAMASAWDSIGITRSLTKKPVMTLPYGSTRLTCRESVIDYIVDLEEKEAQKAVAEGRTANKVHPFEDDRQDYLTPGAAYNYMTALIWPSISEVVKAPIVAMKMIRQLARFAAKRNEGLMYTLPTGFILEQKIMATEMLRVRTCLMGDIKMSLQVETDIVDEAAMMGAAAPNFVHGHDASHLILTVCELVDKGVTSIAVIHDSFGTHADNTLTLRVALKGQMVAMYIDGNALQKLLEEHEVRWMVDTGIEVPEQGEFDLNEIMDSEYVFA
Description: (§1) FIG. 3. […] Transcriptions were performed with T7, T3 and SP6 RNA polymerase in the presence and absence of 20 mM DTT. For each RNA polymerase reaction, pTRI-Xef DNA was the template and UTP[α^32P] was included to measure the efficiency of transcription. Duplicates were performed for each reaction. TCA precipitations were performed on each transcription reaction to measure the percent of the UTP[α^32P] incorporated into RNA.
(§2) The transcription reactions were based on the MAXIscript™ transcription kit (Ambion, Inc.). The following were assembled with or without 20 mM reducing reagent in a final volume of 18 μl: NTPs (0.5 mM each), 1 μg linearized DNA template, 2 μl 10 × transcription buffer, and 0.2 μl UTP [α-^32P] (800 Ci/mmol). The reaction mixtures were incubated 60° C. for 10 minutes and then 2 μl of the either SP6, T7 or T3 RNA polymerase (10 units/μl) were added to the reactions, incubated 30° C. for 60 minutes and then TCA precipitated to assess the incorporation of the radioactive label.

[3] = target: T3, T3 RNA polymerase (Enterobacteria phage T3, UniProt P07659); test: as above; format: biochemical; conditions: 20 mM reducing reagent
T3 construct: purchased Ambion, Inc
T3 sequence (P07659 whole entry): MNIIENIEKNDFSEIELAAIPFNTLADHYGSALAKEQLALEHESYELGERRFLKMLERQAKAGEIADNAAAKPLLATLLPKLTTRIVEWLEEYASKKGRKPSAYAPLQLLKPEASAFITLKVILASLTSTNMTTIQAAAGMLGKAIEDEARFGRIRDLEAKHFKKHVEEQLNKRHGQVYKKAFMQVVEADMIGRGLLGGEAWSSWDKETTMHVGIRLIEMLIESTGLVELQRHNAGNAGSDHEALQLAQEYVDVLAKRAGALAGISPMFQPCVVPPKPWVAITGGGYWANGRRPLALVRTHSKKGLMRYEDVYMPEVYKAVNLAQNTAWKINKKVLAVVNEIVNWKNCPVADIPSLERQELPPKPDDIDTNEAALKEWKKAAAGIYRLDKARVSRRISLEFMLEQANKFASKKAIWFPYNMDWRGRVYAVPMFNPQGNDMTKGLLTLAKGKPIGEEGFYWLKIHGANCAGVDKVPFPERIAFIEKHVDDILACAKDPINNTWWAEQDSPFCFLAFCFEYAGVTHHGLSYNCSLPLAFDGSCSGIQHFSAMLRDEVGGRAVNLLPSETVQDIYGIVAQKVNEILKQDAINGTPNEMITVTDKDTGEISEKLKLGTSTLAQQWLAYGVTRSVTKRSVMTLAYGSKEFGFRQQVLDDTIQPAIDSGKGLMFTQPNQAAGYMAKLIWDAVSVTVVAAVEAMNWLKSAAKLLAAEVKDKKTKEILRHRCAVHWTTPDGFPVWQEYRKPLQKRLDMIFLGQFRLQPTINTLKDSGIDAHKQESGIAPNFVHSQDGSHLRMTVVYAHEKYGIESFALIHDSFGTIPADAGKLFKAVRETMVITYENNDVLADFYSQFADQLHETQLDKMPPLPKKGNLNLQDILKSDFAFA
Description: as §1, §2

[4] = target: T4, T7 RNA polymerase (Escherichia phage T7, UniProt P00573); test: as above; format: biochemical; conditions: 20 mM reducing reagent
T4 construct: purchased Ambion, Inc
T4 sequence (P00573 whole entry): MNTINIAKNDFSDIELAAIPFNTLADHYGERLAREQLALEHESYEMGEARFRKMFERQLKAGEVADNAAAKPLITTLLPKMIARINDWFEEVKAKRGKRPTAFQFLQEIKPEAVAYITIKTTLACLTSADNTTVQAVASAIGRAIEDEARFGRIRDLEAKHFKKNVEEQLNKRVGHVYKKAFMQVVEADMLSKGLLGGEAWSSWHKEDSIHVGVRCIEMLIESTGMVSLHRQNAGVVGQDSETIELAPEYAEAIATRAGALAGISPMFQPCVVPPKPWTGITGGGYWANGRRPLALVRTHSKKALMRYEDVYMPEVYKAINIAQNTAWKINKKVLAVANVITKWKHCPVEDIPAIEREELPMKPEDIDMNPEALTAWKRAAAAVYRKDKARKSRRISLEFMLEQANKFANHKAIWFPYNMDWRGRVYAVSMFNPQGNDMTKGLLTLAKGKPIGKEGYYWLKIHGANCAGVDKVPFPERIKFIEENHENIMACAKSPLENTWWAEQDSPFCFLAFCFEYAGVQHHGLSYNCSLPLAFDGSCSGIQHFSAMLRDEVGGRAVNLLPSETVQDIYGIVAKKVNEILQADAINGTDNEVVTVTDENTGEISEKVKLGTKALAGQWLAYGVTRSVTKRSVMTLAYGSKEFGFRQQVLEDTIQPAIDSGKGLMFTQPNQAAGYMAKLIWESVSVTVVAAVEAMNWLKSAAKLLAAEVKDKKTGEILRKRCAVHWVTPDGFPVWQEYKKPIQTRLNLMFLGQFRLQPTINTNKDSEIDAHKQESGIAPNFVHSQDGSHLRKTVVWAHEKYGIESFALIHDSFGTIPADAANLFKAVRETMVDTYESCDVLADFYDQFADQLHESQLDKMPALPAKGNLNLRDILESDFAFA
Description: as §1, §2

[5] = target: T1, RNase A; conditions: RNase A 10 μg/ml; 4 mM DTT; 4° C. for 20 minutes; cited from earlier work

With `O[C@H](CS)[C@H](O)CS` [DTT, dithiothreitol] the “RNase A inactivation” value ([1]; RNase A 154 ng/ml, 4 mM DTT, 4° C. for 20 minutes) was “not inactivated”, the “RNase A inactivation” value ([1]; RNase A 154 ng/ml, 4 mM DTT, 60° C. for 20 minutes) was “completely inactivated” and the “RNase A inactivation” value ([1]; RNase A 154 ng/ml, 20 mM DTT, 4° C. for 20 minutes) was “not inactivated”. For the same compound, the “RNase A inactivation” value ([1]; RNase A 154 ng/ml, 20 mM DTT, 60° C. for 20 minutes) was “completely inactivated”, the “RNase A inactivation” value ([1]; RNase A 200 ng/ml, 4 mM DTT, Boshes' solution A, 4° C. for 20 minutes) was “not inactivated” and the “RNase A inactivation” value ([1]; RNase A, 20 mM DTT, 60° C. for 20 minutes) was “completely inactivated”. For the same compound, the “inhibition of SP6 RNA polymerase transcription” value [2] was “does not inhibit; also recorded: None of the three polymerases were inhibited”, the “inhibition of T3 RNA polymerase transcription” value [3] was “does not inhibit; also recorded: None of the three polymerases were inhibited” and the “inhibition of T7 RNA polymerase transcription” value [4] was “does not inhibit; also recorded: None of the three polymerases were inhibited”. The “RNase A activity (Boshes, 1970)” value [5] was “inhibited”.

Source: patent US6825340B2, “Methods and reagents for inactivating ribonucleases” (Ambion, Inc., priority 1998, dated 2004)
